The test system of data set [1] is MDR1. The data set can be described thus: MDCK-MDR1 permeability assay for blood-brain-barrier penetration potential (Papp, efflux ratio). It is filed as in vitro ADME. The following applies: dog; for Papp A→B at 120 min, 5 μM: MDCK-MDR1, apical to basolateral; for Papp A→B at 120 min, 5 μM / Papp B→A at 120 min, 5 μM: pH 7.4; for Papp B→A at 120 min, 5 μM: MDCK-MDR1, basolateral to apical; for efflux ratio at 120 min, 5 μM: MDCK-MDR1, pH 7.4, Efflux ratio = Papp (B-to-A)/Papp (A-to-B). The method, then: (§1) The dosing solution concentration was 5 μM of test article in the assay buffer. […] Each determination was performed in duplicate. […] All samples were assayed by LC-MS/MS using electrospray ionization. Analytical conditions are outlined below.
(§2) The apparent permeability (Papp) and percent recovery were calculated as follows: […]

Data set [2] deals with MDR1-MDCK cell monolayers. The description is as above. It is filed as in vitro ADME. As to conditions: 5 μM; for MDCK-MDR1: % Recov A-B: apical to basolateral; for MDCK-MDR1: % Recov A-B / MDCK-MDR1: % Recov B-A: 120 minutes, pH 7.4; for MDCK-MDR1: % Recov B-A: basolateral to apical. How it is done:
as §1, §2

The subject of data set [3] is SMN protein. The experiment in a line: SMN protein assay (Mesoscale Discovery) in SMA patient fibroblasts (GM03813). The format is cell-based, human. The following applies: 48 hours, MSD assay, read-out: SMN EC50 (SMN Protein Potency). The method, then: Compounds were tested on spinal muscular atrophy (SMA) patient fibroblasts (GM03813, Coriell) at doses ranging from 2.5 μM to 0.6 nM. 7000 cells/well were seeded in 96-well plates. Compounds were incubated for 48 hours and the cells were lysed with 100 μL of lysis buffer. 20 μL of lysate was used for SMN protein measurement by Mesoscale Discovery (MSD) assay developed by PharmOptima (Michigan). A standard curve prepared with SMN protein ranging from 1 μg/ml to 19.5 pg/ml was used in each MSD plate to calculate the absolute SMN protein amount in each sample.

Data set [4] deals with SMN. The data set can be described thus: Quantitative splicing assay (SMN) in SMA patient fibroblasts (GM03813), qPCR of SMN FL and SMN Δ7. The format is cell-based. The following applies: Homo sapiens, Fibroblast, 24 h, SMN FL mRNA by qPCR. The method, then: Spinal muscular atrophy (SMA) patient fibroblasts (GM03813, Coriell) were plated in 96-well plates at 50,000 cells/well. Immediately after plating, cells were dosed with compounds for 24 h at concentrations ranging from 2.5 μM to 0.6 nM (0.1% DMSO). Treated cells were lysed and cDNA synthesized using the Fast Advanced Cells-to-Ct kit (ThermoFisher A35378) according to the manufacturer's instructions. 2 μL of each cDNA were used in qPCR reactions. The qPCR reactions were prepared in 384-well plates in 10 μL volume, using TaqMan™ Fast Advanced Master Mix (ThermoFisher; 4444965) with primers and probes shown in the table below. Reactions were run in a Quant Studio 6 qPCR instrument with default settings.

Results on ten compounds are retold here after patent US11845744B2, “Methods and compositions for modulating splicing” (Skyhawk Therapeutics, Inc., priority 2019, dated 2023).

In the case of `CN(c1cnc(-c2ccc(-c3ccn(C)c(=O)c3)cc2O)nn1)[C@@H]1C[C@H]2CC[C@H](N2)[C@@H]1F` (single isomer, unassigned) [Compound 1A], in data set [1], the Papp A→B at 120 min, 5 μM was 0.12 ×10⁻⁶ cm/s; the Papp B→A at 120 min, 5 μM amounted to 37.8 ×10⁻⁶ cm/s; the efflux ratio at 120 min, 5 μM stood at 309. In data set [2], the “MDCK-MDR1: % Recov A-B” value was determined as 81% and the “MDCK-MDR1: % Recov B-A” value came out at 94%. The EC50 in data set [3] lay within 500 to 10000 nM.

For the compound `CN(c1cnc(-c2ccc(-c3ccn(C)c(=O)c3)cc2O)nn1)[C@H]1C[C@@H]2CC[C@@H](N2)[C@H]1F` (single isomer, unassigned) [Compound 1B], in data set [1], the Papp A→B at 120 min, 5 μM was 0.3 ×10⁻⁶ cm/s; the Papp B→A at 120 min, 5 μM was 46.4 ×10⁻⁶ cm/s; the efflux ratio at 120 min, 5 μM stood at 152. In data set [2], the “MDCK-MDR1: % Recov A-B” value stood at 95% and the “MDCK-MDR1: % Recov B-A” value is 84%. Besides, in data set [3], the concentration giving a half-maximal response (EC50) is 500 to 10000 nM.

In the case of `CN(c1cnc(-c2ccc(-c3cn[nH]c3)cc2O)nn1)[C@@H]1C[C@H]2CC[C@H](N2)[C@@H]1F` (single isomer, unassigned) [Compound 2A], in data set [1], the Papp A→B at 120 min, 5 μM came to 2.05 ×10⁻⁶ cm/s; the Papp B→A at 120 min, 5 μM stood at 39.8 ×10⁻⁶ cm/s; the efflux ratio at 120 min, 5 μM amounted to 19. In data set [2], the “MDCK-MDR1: % Recov A-B” value is given as 78% and the “MDCK-MDR1: % Recov B-A” value was 74%. The EC50 in data set [3] lay in the range of 500 to 10000 nM.

The compound `CN(c1cnc(-c2ccc(-c3cn[nH]c3)cc2O)nn1)[C@H]1C[C@@H]2CC[C@@H](N2)[C@H]1F` (single isomer, unassigned) [Compound 2B] came in with an EC50 in data set [4] of 0.01 to 15 nM. In addition, in data set [1], the Papp A→B at 120 min, 5 μM amounted to 2.26 ×10⁻⁶ cm/s; the Papp B→A at 120 min, 5 μM is 53.4 ×10⁻⁶ cm/s; the efflux ratio at 120 min, 5 μM was 24. In data set [2], the “MDCK-MDR1: % Recov A-B” value came out at 93% and the “MDCK-MDR1: % Recov B-A” value came to 96%. The concentration for a half-maximal effect (EC50) in data set [3] was 0.01 to 15 nM.

In data set [4], `CN(c1cnc(-c2ccc(-c3cnn(C)c3)cc2O)nn1)[C@@H]1C[C@H]2CC[C@H](N2)[C@@H]1F` (single isomer, unassigned) [Compound 3A] had an EC50 of 0.01 to 15 nM. Further, in data set [1], the apical-to-basolateral permeability (Papp A→B) at 120 min, 5 μM is 5.37 ×10⁻⁶ cm/s; the Papp B→A at 120 min, 5 μM was found to be 37.3 ×10⁻⁶ cm/s; the efflux ratio at 120 min, 5 μM turned out to be 7. Further, in data set [2], the “MDCK-MDR1: % Recov A-B” value is listed as 67% and the “MDCK-MDR1: % Recov B-A” value turned out to be 72%. The concentration for a half-maximal effect (EC50) in data set [3] lay within 15 to 50 nM.

Regarding `CN(c1cnc(-c2ccc(-c3cnn(C)c3)cc2O)nn1)[C@H]1C[C@@H]2CC[C@@H](N2)[C@H]1F` (single isomer, unassigned) [Compound 3B], the 50% effective concentration (EC50) in data set [4] lay within 0.01 to 15 nM. For the same compound, in data set [1], the Papp A→B at 120 min, 5 μM turned out to be 4.3 ×10⁻⁶ cm/s; the Papp B→A at 120 min, 5 μM is 37.8 ×10⁻⁶ cm/s; the efflux ratio at 120 min, 5 μM was 9. In addition, in data set [2], the “MDCK-MDR1: % Recov A-B” value turned out to be 62% and the “MDCK-MDR1: % Recov B-A” value turned out to be 76%. Besides, in data set [3], the EC50 is 0.01 to 15 nM.

Consider `CN(C)C(=O)c1cc2cc(O)c(-c3ncc(N(C)[C@@H]4C[C@H]5CC[C@H](N5)[C@@H]4F)nn3)cc2o1` (single isomer, unassigned) [Compound 4A], for which, in data set [2], the “MDCK-MDR1: % Recov A-B” value is 89% and the “MDCK-MDR1: % Recov B-A” value turned out to be 96%. Also, the “MDCK-MDR1: Efflux” value in data set [2] (Efflux ratio = Papp (B-to-A)/Papp (A-to-B)) is given as 26.

In the case of `CN(C)C(=O)c1cc2cc(O)c(-c3ncc(N(C)[C@H]4C[C@@H]5CC[C@@H](N5)[C@H]4F)nn3)cc2o1` (single isomer, unassigned) [Compound 4B], in data set [1], the Papp A→B at 120 min, 5 μM was determined as 3.05 ×10⁻⁶ cm/s; the Papp B→A at 120 min, 5 μM was determined as 50 ×10⁻⁶ cm/s; the efflux ratio at 120 min, 5 μM was determined as 16. Also, in data set [2], the “MDCK-MDR1: % Recov A-B” value was determined as 91% and the “MDCK-MDR1: % Recov B-A” value is 101%.

For the compound `Cn1cc(-c2ccc(-c3ncc(O[C@@H]4C[C@H]5CCC[C@H](N5)[C@@H]4F)nn3)c(O)c2)cn1` (single isomer, unassigned) [Compound 5A], in data set [1], the Papp A→B at 120 min, 5 μM came out at 9 ×10⁻⁶ cm/s; the Papp B→A at 120 min, 5 μM worked out at 30.9 ×10⁻⁶ cm/s; the efflux ratio at 120 min, 5 μM is 3. Besides, in data set [2], the “MDCK-MDR1: % Recov A-B” value stood at 69% and the “MDCK-MDR1: % Recov B-A” value was determined as 79%. Besides, the concentration for a half-maximal effect (EC50) in data set [3] was in the range of 500 to 10000 nM.

Consider `Cn1cc(-c2ccc(-c3ncc(O[C@H]4C[C@@H]5CCC[C@@H](N5)[C@H]4F)nn3)c(O)c2)cn1` (single isomer, unassigned) [Compound 5B], for which, in data set [1], the Papp A→B at 120 min, 5 μM stood at 10.2 ×10⁻⁶ cm/s; the Papp B→A at 120 min, 5 μM worked out at 43.7 ×10⁻⁶ cm/s; the efflux ratio at 120 min, 5 μM is 4. Further, in data set [2], the “MDCK-MDR1: % Recov A-B” value is given as 83% and the “MDCK-MDR1: % Recov B-A” value amounted to 90%. For the same compound, the EC50 in data set [3] was 100 to 500 nM.
